Test results: ChEMBL document CHEMBL4184111, “Small molecule immuno-oncology therapeutic agents” (Bioorg Med Chem Lett, 2018)
One block for each molecule: values may come before it.

How the values were obtained:
[1] = biological target: Programmed cell death protein 1 (Homo sapiens, UniProt Q15116); test: Inhibition of His-tagged PD-L1 binding to PD-1-Ig (unknown origin) preincubated with PD-L1 for 15 mins followed by PD-1-Ig addition measured after 15 mins by HTRF binding assay
[2] = biological target: Mitogen-activated protein kinase kinase kinase kinase 1 (Homo sapiens, UniProt Q92918); test: Inhibition of N-terminal GST-tagged human HPK1 (1 to 346 residues) after 30 mins in presence of ATP by indirect ELISA
[3] = Inhibition of arginase (unknown origin); set-up: species or system Homo sapiens
eIF-2-alpha kinase GCN2 = eIF-2-alpha kinase GCN2 (Homo sapiens, UniProt Q9P2K8); test: Inhibition of GCN2 (unknown origin) using GFP--fused eIF2alpha as substrate preincubated for 20 mins followed by substrate and ATP addition measured after 90 mins by TR-FRET assay
[4] = biological target: T1, Arginase-2, mitochondrial (Homo sapiens, UniProt P78540); test: Inhibition of arginase 2 (unknown origin)
T1 sequence (P78540 whole entry): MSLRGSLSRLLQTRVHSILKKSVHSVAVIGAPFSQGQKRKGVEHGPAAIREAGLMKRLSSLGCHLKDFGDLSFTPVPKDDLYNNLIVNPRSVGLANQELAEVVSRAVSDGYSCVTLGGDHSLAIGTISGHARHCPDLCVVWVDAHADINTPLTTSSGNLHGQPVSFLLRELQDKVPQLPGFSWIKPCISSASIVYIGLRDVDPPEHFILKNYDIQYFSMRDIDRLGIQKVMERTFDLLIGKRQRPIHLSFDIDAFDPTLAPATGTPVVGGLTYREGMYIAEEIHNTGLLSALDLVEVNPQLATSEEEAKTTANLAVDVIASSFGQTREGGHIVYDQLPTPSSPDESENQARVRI

[5] = Half life in rat; format: ADME, organism-based; details: in vivo
[6] = biological target: Tyrosine-protein kinase SYK (Homo sapiens, UniProt P43405); test: Inhibition of N-terminal GST-tagged human SYK expressed in baculovirus infected Sf9 insect cells using Biotin-Aha-Aha-KEDPDYEWPSAKK as substrate after 90 mins by flash plate assay

eIF-2-alpha kinase GCN2, sequence (Q9P2K8 whole entry, the tested form may be a part): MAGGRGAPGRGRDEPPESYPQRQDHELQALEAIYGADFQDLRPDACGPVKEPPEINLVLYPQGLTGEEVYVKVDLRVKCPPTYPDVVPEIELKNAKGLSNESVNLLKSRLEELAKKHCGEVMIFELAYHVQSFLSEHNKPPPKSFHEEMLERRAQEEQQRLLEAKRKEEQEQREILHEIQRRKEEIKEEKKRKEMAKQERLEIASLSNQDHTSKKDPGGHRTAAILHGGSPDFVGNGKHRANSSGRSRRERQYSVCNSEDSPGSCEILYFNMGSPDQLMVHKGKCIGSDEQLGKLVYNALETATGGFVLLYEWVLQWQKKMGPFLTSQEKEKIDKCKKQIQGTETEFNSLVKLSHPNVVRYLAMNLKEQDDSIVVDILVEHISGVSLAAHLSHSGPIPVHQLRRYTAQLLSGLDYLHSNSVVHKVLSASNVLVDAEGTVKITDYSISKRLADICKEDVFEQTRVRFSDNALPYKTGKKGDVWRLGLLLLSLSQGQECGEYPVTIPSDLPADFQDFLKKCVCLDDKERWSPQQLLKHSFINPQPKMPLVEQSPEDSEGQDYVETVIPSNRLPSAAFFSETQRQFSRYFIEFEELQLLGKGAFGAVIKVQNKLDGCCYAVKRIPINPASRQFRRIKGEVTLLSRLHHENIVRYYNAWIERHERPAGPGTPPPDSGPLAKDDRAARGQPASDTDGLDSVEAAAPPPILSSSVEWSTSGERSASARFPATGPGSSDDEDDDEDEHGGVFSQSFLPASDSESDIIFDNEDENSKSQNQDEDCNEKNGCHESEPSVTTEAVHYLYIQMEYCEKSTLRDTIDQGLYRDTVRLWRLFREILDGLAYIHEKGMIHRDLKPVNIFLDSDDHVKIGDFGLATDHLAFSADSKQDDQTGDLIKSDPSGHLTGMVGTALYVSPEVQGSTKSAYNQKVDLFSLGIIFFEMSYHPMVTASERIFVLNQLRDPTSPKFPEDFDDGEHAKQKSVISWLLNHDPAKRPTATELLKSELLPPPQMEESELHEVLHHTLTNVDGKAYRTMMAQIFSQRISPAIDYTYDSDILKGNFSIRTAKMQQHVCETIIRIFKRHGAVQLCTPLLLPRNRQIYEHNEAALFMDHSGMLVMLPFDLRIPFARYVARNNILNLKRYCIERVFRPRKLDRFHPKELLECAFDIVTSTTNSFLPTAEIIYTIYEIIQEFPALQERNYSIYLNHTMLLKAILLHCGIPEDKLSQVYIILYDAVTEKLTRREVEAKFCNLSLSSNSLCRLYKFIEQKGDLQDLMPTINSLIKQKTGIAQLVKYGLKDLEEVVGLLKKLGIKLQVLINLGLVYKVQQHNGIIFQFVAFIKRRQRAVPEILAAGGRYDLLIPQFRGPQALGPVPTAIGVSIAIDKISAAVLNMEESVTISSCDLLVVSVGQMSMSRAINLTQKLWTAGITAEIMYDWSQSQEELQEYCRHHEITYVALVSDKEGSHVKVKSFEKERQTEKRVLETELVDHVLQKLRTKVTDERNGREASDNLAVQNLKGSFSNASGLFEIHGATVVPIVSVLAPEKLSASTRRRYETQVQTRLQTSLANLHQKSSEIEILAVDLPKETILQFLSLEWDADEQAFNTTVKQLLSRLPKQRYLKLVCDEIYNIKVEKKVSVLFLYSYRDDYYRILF
Mitogen-activated protein kinase kinase kinase kinase 1, sequence (Q92918 whole entry, the tested form may be a part): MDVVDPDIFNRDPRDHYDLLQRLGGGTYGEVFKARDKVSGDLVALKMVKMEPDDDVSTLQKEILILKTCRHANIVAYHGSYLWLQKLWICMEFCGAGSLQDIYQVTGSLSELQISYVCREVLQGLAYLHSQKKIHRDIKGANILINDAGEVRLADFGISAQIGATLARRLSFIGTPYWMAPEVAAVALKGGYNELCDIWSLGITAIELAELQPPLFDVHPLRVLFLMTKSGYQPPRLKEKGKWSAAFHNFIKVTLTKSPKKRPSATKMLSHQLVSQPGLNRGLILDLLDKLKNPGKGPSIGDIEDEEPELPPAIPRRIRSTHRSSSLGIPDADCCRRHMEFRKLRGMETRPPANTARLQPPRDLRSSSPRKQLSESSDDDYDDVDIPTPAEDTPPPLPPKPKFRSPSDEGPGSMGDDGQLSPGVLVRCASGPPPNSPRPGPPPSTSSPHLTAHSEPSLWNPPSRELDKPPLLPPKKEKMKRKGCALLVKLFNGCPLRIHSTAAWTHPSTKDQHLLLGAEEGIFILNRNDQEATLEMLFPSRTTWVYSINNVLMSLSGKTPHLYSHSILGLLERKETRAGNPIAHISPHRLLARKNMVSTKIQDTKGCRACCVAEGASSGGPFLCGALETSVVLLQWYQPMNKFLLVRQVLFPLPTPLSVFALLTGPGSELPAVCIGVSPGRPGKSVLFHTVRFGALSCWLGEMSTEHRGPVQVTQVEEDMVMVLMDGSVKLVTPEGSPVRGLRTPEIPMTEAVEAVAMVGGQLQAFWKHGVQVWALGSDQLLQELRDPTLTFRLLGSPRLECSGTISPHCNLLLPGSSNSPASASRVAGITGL
Programmed cell death protein 1, sequence (Q15116 whole entry, the tested form may be a part): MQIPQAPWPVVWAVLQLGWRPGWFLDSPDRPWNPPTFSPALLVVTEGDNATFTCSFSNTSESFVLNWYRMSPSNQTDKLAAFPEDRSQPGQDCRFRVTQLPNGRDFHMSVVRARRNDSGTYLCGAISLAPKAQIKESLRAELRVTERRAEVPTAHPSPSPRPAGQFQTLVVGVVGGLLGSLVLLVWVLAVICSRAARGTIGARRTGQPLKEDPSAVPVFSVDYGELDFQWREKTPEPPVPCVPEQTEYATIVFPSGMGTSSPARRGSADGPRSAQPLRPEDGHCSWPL

Compound: C[C@H](O)[C@H](NC(=O)N[C@@H](CC(N)=O)c1nnc([C@@H](N)CO)s1)C(=O)O
IC50 [1]: < 50 nM

Compound: CN1CCN(c2ccc3[nH]c(-c4c(N)c5ccsc5[nH]c4=O)nc3c2)CC1
IC50 [2]: < 50 nM

Compound: C[C@H](N)C(=O)N1C[C@H](CCCB(O)O)[C@](N)(C(=O)O)C1
IC50 [3]: 98 nM

Compound: CN1CCN(c2ccc3nc(-c4c(N)c5sccc5[nH]c4=O)[nH]c3c2)CC1
IC50 [2]: < 50 nM

Compound: N=C(NO)NCC[C@H](N)C(=O)O [NOR-NOHA]
Ki [4]: 51 nM
half-life [5]: 15 to 30 min

Compound: COc1cc(OCc2cccc(-c3ccccc3)c2C)cc(OC)c1CNCC1CC(=O)N1 (stereo not given)
IC50 [1]: < 50 nM

Results, then the molecule that gave them:

IC50 (eIF-2-alpha kinase GCN2): < 300 nM
Compound: O[C@H]1CC[C@H](n2cc(Nc3ncc4nnn(-c5ccc(Cl)c(F)c5)c4n3)cn2)CC1

IC50 [6]: 100 to 300 nM
IC50 (eIF-2-alpha kinase GCN2): 300 to 3000 nM
Compound: CC(C)C1(O)C(=O)Nc2cc(Nc3nc4c(-c5cnn(C)c5)nccn4n3)ccc21 (stereo not given)
